The test system of assay [1] is Multispecies saliva derived Biofilm. Put plainly: Substantivity: multispecies saliva derived biofilm growth on pre-treated, rinsed hydroxyapatite surfaces. The settings on record: 24 hr on pre-treated hydroxyapatite. Type of assay: cell-based, human saliva. As for the experimental part: The peg lids are transferred to a clear 96 well plate containing 200 μl of the designated treatments below in Jordan's with 5% sucrose. This peg/plate assembly is shaken for 5 mins and then incubated for 25 mins aerobically at 37 C. After 30 mins of treatment the two pegs is transferred to a 96 well plate containing 200 μl of water and it is rinsed for 10 min at 500 rpm. […] After incubation the peg lids are transferred to a rinse plate containing 200 μl of water for 5 minutes and then transferred to white 96 well plate containing 200 μl Bac-titer-Glo, this is shaken for 5 minutes and read for luminescence.

In assay [2] the test system is Streptococcus mutans Biofilm. Put plainly: Substantivity: S. mutans biofilm growth on pre-treated, rinsed hydroxyapatite surfaces. Format: cell-based, S. mutans (ATCC#25175). Conditions: 24 hr on pre-treated hydroxyapatite. On the procedure:
Method to evaluate the substantivity of polymers to hydroxy apatite surfaces and the effects these polymers have on the growth of Streptococcus mutans and Saliva derived biofilms: S. mutans (ATCC#25175) is inoculated into 10 mL BHI and incubated statically at 37° C. overnight. […] Hydroxy apatite coated peg lids are pellicle treated with sterile artificial saliva 200 μl/per well of a 96 well clear plate for 30 minutes at 37° C. aerobically. The peg lids are transferred to a clear 96 well plate containing 200 μl of the designated treatments below in Jordan's with 5% sucrose. […] After 30 mins of treatment the two pegs is transferred to a 96 well plate containing 200 μl of water and it is rinsed for 10 min at 500 rpm. […] After incubation the peg lids are transferred to a rinse plate containing 200 μl of water for 5 minutes and then transferred to white 96 well plate containing 200 μl Bac-titer-Glo, this is shaken for 5 minutes and read for luminescence.

In another assay the test system is S. mutans (ATCC#25175). Put plainly: Inhibition of bacterial acid production (Bromo Cresol Purple broth, OD 588/427). Type of assay: cell-based. Conditions: for Inhibition of bacterial acid production, in words: change of OD 588 / OD 427 (pH indicator). On the procedure: Method to observe the acid production of S. mutans in a medium containing a pH indicator and glucose. Observe how xylitol and the example polymers affect acid production: A culture of S. mutans (ATCC#25175) is grown statically overnight in 10 mL liquid broth (BHI) at 37° C. […] The no treatment control has 20 μl water added. To each experimental well 180 of the inoculated BCP broth is added. To the no inoculum control 20 μl water and 20 μl filter sterilized overnight culture broth are added. […] Both wavelengths are measured every hour for several hours but before evaporation became an issue. The plates are shaken for 10 seconds before reading.

Another assay relates to 48 hour saliva biofilms. Put plainly: Disruption of established 48 hour saliva biofilms. Format: cell-based, pooled human saliva. Conditions: treatment for 5 minutes; Active = 1000 ppm e-polylysine, Chelate = 0.1% Trilon Ca, Polymer = 1%; negative = increase over control. On the procedure:
Method to screen combinations of actives, example polymers and chelates to identify potential synergies for biofilm disruption: Polystyrene pegs are pellicle treated with fresh pooled human saliva for 30 minutes at 37° C. aerobically. […] The pegs are added to the growth media and incubated anaerobically 37° C. At 24 hr. the pegs are removed and transferred to a fresh plate containing 200 μl of sterile BHI. And incubated anaerobically for another 24 hr at 37° C. […] Following a 5 minute rinse at room temperature, the pegs are transferred to a treatment plate containing combinations of actives, chelate and polymers. This is followed a 5 minute treatment (shaking at 500 rpm). The treated pegs are transferred to a white 96 well plate containing 200 μl Bac-titer-Glo reagent—this is incubated at room temperature for 5 minutes (shaking) and read on a plate reader for luminescence.

The subject of assay [3] is Streptococcus mutans biofilm. Put plainly: Prevention of S. mutans biofilm development on hydroxy apatite pegs (Bac-titer-Glo luminescence). Format: cell-based. The settings on record: Controls column; 2% xylitol; 24 hr growth; negative = increase over control. As for the experimental part:
To evaluate the multispecies saliva and S. mutans biofilm preventing activity of polymers and control combinations of condensants S. mutans 25175 is inoculated into 10 mL BHI and incubated statically at 37° C. overnight. […] Hydroxy apatite coated peg lids are pellicle treated with sterile artificial saliva 200 μl/per well of a 96 well clear plate for 30 minutes at 37° C. aerobic. […] Test solutions are added to a desired final concentration and water is added to bring the final volume to 200 μl.

Assay [4] relates to multispecies saliva biofilm. Put plainly: Prevention of multispecies saliva biofilm development on hydroxy apatite pegs (Bac-titer-Glo luminescence). Type of assay: cell-based, pooled human saliva. The settings on record: Controls column; 2% xylitol; 24 hr growth. As for the experimental part:
To evaluate the multispecies saliva and S. mutans biofilm preventing activity of polymers and control combinations of condensants Hydroxy apatite (HA) coated surfaces of a 96 peg lid (Biosurface Technologies, Bozeman, Mont.) are pellicle treated with pooled human saliva 200 μl/per well of a 96 well clear plate for 30 minutes at 37° C. aerobically. Into each well of the growth plate, clear 96 well plate, 160 μl inoculated Brain Heart Infusion (BHI) broth is added. Test solutions are added to a desired final concentration and water is added to bring the final volume to 200 μl.

The values that follow come from patent US10092500B2, “Oral care compositions” (BASF SE, priority 2014, dated 2018).

For the compound `N=C(N)NCCC[C@H](N)C(=O)O` [Arginine, L-arginine], the “% decrease in biofilm as compared to growth control (negative indicates increased biofilm)” value in assay [1] (% treatment 0.070%) is listed as −28%; in assay [1] (% treatment 0.140%), −20%; in assay [1] (% treatment 0.280%), −24%; in assay [1] (% treatment 0.560%), −22%; in assay [1] (% treatment 1.120%), 49%; in assay [2] (% treatment 0.070%) it was −40%. The “% decrease in biofilm as compared to growth control (negative indicates increased biofilm)” value in assay [2] (% treatment 0.140%) is reported as −18%; in assay [2] (% treatment 0.280%) it was −59%; in assay [2] (% treatment 0.560%), −53%; in assay [2] (% treatment 1.120%), −29%. Besides, in the assay on S. mutans (ATCC#25175) (1% treatment, pH 6.3), the “Mean Delta OD588 (stdev)” value was 1.054 (0.13). Moreover, in the assay on S. mutans (ATCC#25175), the “Inhibition of bacterial acid production, in words” value (from here on “Inhibition”) was “no acid inhibiting effects”.

Regarding `CCCCCCCCCCCCCCCC[n+]1ccccc1` [Cetylpyridinium chloride], the entries for the “% decrease in biofilm as compared to growth control (negative indicates increased biofilm)” value in assay [1] (% treatment 0.070%) and in assay [2] (% treatment 0.070%) were 98% and 100%, respectively.

With `O=C(O)CN(CCN(CC(=O)O)CC(=O)O)CC(=O)O` [EDTA, ethylenediaminetetraacetic acid], in the assay on S. mutans (ATCC#25175) (1% treatment, pH 7.0), the “Mean Delta OD588 (stdev)” value was 0.283 (0.086). The “Inhibition” value with S. mutans (ATCC#25175) was “no or little change demonstrating acid inhibiting effects”.

As for `O=C([O-])CN(CCN(CC(=O)[O-])CC(=O)[O-])CC(=O)[O-].[Ca+2].[Na+].[Na+]` [Trilon Ca, Ca EDTA], the “Disruption of 48 hour saliva biofilms, reduction from the No Treatment control” value in the assay with 48 hour saliva biofilms is reported as −10%.

For the compound `OC[C@@H](O)[C@H](O)[C@@H](O)CO` [Xylitol, xylitol], in assay [3], the “Prevention of Streptococcus mutans biofilm development, reduction from the untreated control” value is listed as −1%. Besides, the “Prevention of multispecies saliva biofilm development, reduction from the untreated control” value in assay [4] is reported as 17%. For the same compound, the “% decrease in biofilm as compared to growth control (negative indicates increased biofilm)” value in assay [1] (% treatment 1.120%) is reported as 14%; in assay [1] (% treatment 2.000%), 12%; in assay [2] (% treatment 1.120%) it was −11%; in assay [2] (% treatment 2.000%), −15%. In addition, the “Mean Delta OD588 (stdev)” value in the assay with S. mutans (ATCC#25175) (0.1% treatment) is listed as 0.993 (0.099); with S. mutans (ATCC#25175) (0.5% treatment), 0.841 (0.119); in the assay with S. mutans (ATCC#25175) (1% treatment), 0.759 (0.081); with S. mutans (ATCC#25175) (2% treatment), 0.734 (0.131). Besides, in the assay with S. mutans (ATCC#25175), the “Inhibition” value is reported as “acid inhibition at all concentrations tested”.

As for `O=C(O)CC(O)(CC(=O)O)C(=O)O` [citric acid], in the assay on S. mutans (ATCC#25175) (1% treatment, pH 7.0), the “Mean Delta OD588 (stdev)” value is recorded as 0.196 (0.029). Besides, the “Inhibition” value in the assay with S. mutans (ATCC#25175) was “no or little change demonstrating acid inhibiting effects”.

In the case of `O=C(O)CCC(=O)O` [succinic acid], in the assay with S. mutans (ATCC#25175) (1% treatment, pH 7.4), the “Mean Delta OD588 (stdev)” value was 0.323 (0.107). The “Inhibition” value with S. mutans (ATCC#25175) is recorded as “no or little change demonstrating acid inhibiting effects”.
